Assays:
caspase 3 = assay: In vitro caspase assay (ELISA) in U-87 cells; type: cell-based, human; settings: 5 mM, 18 hours after the addition
Description: U-87 cells were used to test the effect of Compound A on the apoptotic pathway.
U-87 cells were seeded in MEM alone or in MEM supplemented with 5 mM of Compound A, in MTP. For in vitro caspase assay, the cell culture plates were removed from incubator, cells were lysed and centrifuged and the supernatant was tested for caspase levels (C3). Supernatants from each sample were tested side by side on a new microtitre plate by ELISA with AP labelled IgG C3 antibody, pNPP chromogen (Enzo Diagnostics, Farmingdale, N.Y.). Caspase assays were performed immediately after the addition of the MEM medium, with or without Compound A, and 18 hours after the addition.

Gram positives = assay: Antibiotic activity, plate counts on Mueller-Hinton agar, Gram positives; type: cell-based; settings: plate counts after overnight incubation at 37° C.
Gram negative strains = assay: Antibiotic activity, plate counts on Mueller-Hinton agar, Gram negative ATCC strains; type: cell-based; settings: 2 mg/ml, 1 mg/ml; plate counts after overnight incubation at 37° C.
Description: The antibiotic activity of S-2-amino-3(3-phenylacetylimidazol-4-yl)propanoic acid (Compound A) was tested with a panel of standard ATCC bacteria, including 13315 Proteus vulgaris, 13883 Klebsiella pneumoniae, 25922 Escherichia coli, 27853 and Pseudomomas aeruginosa.
Doubling dilutions of Compound A were tested on its antibiotic potentials. […] Plate counts were performed. All petri plates inoculated with 1 ml 0.5McFarland turbidity of corresponding ATCC strain.

U-87 cells = assay: Cell viability (cell count) with U-87 cells; type: cell-based; settings: Homo sapiens, U-87 MG, 72 hours, 37° C., MEM pH 7.0, read-out: EC90 (concentration resulting in greater than 90% decrease of cell numbers)
mice = assay: Preclinical safety study in mice; type: in vivo; settings: 300 mg/kg or 500 mg/kg orally (PO), up to 72 hours
Description: Preclinical safety studies were performed with administration of different levels of doses of Compound A to mice. Toxicity was analyzed with standard clinical chemical and histopathological examination. Five mice (n=5) were treated with 300 mg/kg or 500 mg/kg orally (PO) with one hour pretreatment for PO. Autonomic signs/mortality was measured during the first hour and mortality was measured again at 3, 24, 48 and 72 hours after administration.

HepG2 cells = assay: Cell viability of HepG2 cell line; type: cell-based; settings: Homo sapiens
Description: The antineoplastic activities of Compound A were tested with U-87, a human glioblastoma/astrocytoma cell line and HepG2, a human liver carcinoma cell line.
The antineoplastic activity of Compound A was also measured with HepG2 cells.

`N[C@@H](Cc1cncn1C(=O)Cc1ccccc1)C(=O)O` [Compound A, (S)-2-amino-3-(3-phenylacetylimidazol-4-yl) propanoic acid] was tested, and the “increase of caspase 3” value (caspase 3) was “Exponential increase, in the scale of several orders of magnitude”, the “inhibition of Gram positives” value (Gram positives) was “No inhibition” and the “inhibition of Gram negative strains” value (Gram negative strains) was “did show inhibition”. The EC90 (U-87 cells) was 5 mM, the “toxicity (autonomic signs/mortality, clinical chemical and histopathological examination)” value (mice) was “No toxicity was observed” and the EC90 (HepG2 cells) was 5 mM. For the same molecule, the cytotoxicity at 5000 µM (HepG2 cells; 5 mM, read-out: decrease in cell viability) was > 90%.
